# In patent publication US6911431B1 (priority 1989, dated 2005):
# How the values were obtained:
# [1] = system: chicken embryo chorioallantoic membrane; test: Chicken embryo chorioallantoic membrane (CAM) angiogenesis assay; assay type: in vivo; settings: for Inhibition of Neovascularization Grade/Range / Mean % Inhibition of Neovascularization / Inhibition of Neovascularization Grade/Mean ± SD: 48 hrs; for Inhibition of Neovascularization Grade/Mean ± SD: grade scale 0-4
# Method: Briefly, eight-day chicken embryos were removed from eggs and placed into sterile petri dishes. Individual filter paper disks were saturated with 7.5 μl of different stock solutions of L-Glu-L-Trp dissolved in sterile 0.14M NaCl to achieve final test concentrations of 0.001, 0.01, 0.1, 1.0, 10, 100, 500, and 1000 μg per disk. Disks were air dried and then inverted onto the surface of the respective embryos.
# In this experiment saline served as a negative control and 10 μg/disk of heparin served as a positive control. The pentapeptide Thr-Ala-Glu-Glu-Lys (TAEEK) (SEQ ID NO 7) served as a specificity control, (i.e., for possible nonspecific effects of peptides on neovascularization at the concentrations tested). Nine-12 test disks and a corresponding number of different embryos were employed for each test concentration along with […] (each) positive and negative control embryos.
# Lewis lung carcinoma = test: Inhibition of Lewis lung tumor neovascularization; assay type: in vivo, C57BL/6 mice
# Method: Lewis lung carcinoma cells (5×10^7) when injected (0.1 ml) intradermally into both flanks of C57BL/6 mice (day 0) produce a visible highly vascularized tumor nodules within 7 days. By excising the tumor the degree of tumor vascularity may be determined microscopically by counting the number of large vessels radiating from the tumor mass.
# Sarcoma 180 tumors = test: Sarcoma 180 tumor size after prophylactic treatment; assay type: in vivo, Swiss-Webster mice
# Method: Neovascularization is required for tumor growth. Anti-tumor activity of L-Glu-L-Trp was evaluated at an independent contract research organization. Sarcoma 180 tumors (ATCC CCL-8 CCRF S-180 II) were induced by injecting 2×10^6 cells/0.1 ml im into each rear flank of Swiss-Webster mice. Groups consisted of 10 animals (20 tumors). L-Glu-L-Trp was administered in a single 0.1 ml dose of either 10 μg/kg, 75 μg/kg, 250 μg/kg or 1000 μg/kg. Tumor size was evaluated by surgically removing and weighing the affected limbs, and comparing the weight with the weight of normal control (non-tumor) limbs. The first prophylactic drug regimen (PDR-1) consisted of 5 consecutive daily ip injections commencing on day −5 and ending of day −1. The second prophylactic drug regimen (PDR-2) consisted of 5 consecutive daily im injections to the left rear flank (tumor site) beginning on day −5 and ending on day −1. Sarcoma 180 cells were injected im on day 0. Saline 0.1 ml served as the negative control.
# [2] = PDR-1 (ip, day −5 to −1), 10 μg/kg
# [3] = PDR-1 (ip, day −5 to −1), 75 μg/kg
# [4] = PDR-1 (ip, day −5 to −1), 250 μg/kg
# [5] = PDR-1 (ip, day −5 to −1), 1000 μg/kg
# [6] = PDR-2 (im left flank), 10 μg/kg
# [7] = PDR-2 (im left flank), 75 μg/kg
# [8] = PDR-2 (im left flank), 250 μg/kg
# [9] = PDR-2 (im left flank), 1000 μg/kg
# [10] = PDR-2 (im left rear flank, day −5 to −1), 10 μg/kg
# [11] = PDR-2 (im left rear flank, day −5 to −1), 75 μg/kg
# [12] = PDR-2 (im left rear flank, day −5 to −1), 250 μg/kg
# [13] = PDR-2 (im left rear flank, day −5 to −1), 1000 μg/kg
compound,measurement,setting,value
L-Glu-L-Trp,Inhibition of Neovascularization Grade/Range,[1]; 0.001 μg/disk,0-2
same,Mean % Inhibition of Neovascularization,[1]; 0.001 μg/disk,33 ± 20%
same,Inhibition of Neovascularization Grade/Mean ± SD,[1]; 0.001 μg/disk,1.3 ± 0.82
same,decrease in vascularity in embryos,[1]; 10 ng-1000 μg in saline,30-88%
same,Inhibition of Neovascularization Grade/Range,[1]; 0.01 μg/disk,1-2
same,Mean % Inhibition of Neovascularization,[1]; 0.01 μg/disk,38 ± 13%
same,Inhibition of Neovascularization Grade/Mean ± SD,[1]; 0.01 μg/disk,1.5 ± 0.53
same,Inhibition of Neovascularization Grade/Range,[1]; 0.1 μg/disk,0-3
same,Mean % Inhibition of Neovascularization,[1]; 0.1 μg/disk,48 ± 23%
same,Inhibition of Neovascularization Grade/Mean ± SD,[1]; 0.1 μg/disk,1.9 ± 0.88
same,Inhibition of Neovascularization Grade/Range,[1]; 1 μg/disk,1-4
same,Mean % Inhibition of Neovascularization,[1]; 1 μg/disk,58 ± 23%
same,Inhibition of Neovascularization Grade/Mean ± SD,[1]; 1 μg/disk,2.33 ± 0.89
same,Inhibition of Neovascularization Grade/Range,[1]; 10 μg/disk,1-4
same,Mean % Inhibition of Neovascularization,[1]; 10 μg/disk,78 ± 28%
same,Inhibition of Neovascularization Grade/Mean ± SD,[1]; 10 μg/disk,3.09 ± 1.14
same,Inhibition of Neovascularization Grade/Range,[1]; 100 μg/disk,3-4
same,Mean % Inhibition of Neovascularization,[1]; 100 μg/disk,85 ± 18%
same,Inhibition of Neovascularization Grade/Mean ± SD,[1]; 100 μg/disk,3.44 ± 0.73
same,Inhibition of Neovascularization Grade/Range,[1]; 500 μg/disk,1-4
same,Mean % Inhibition of Neovascularization,[1]; 500 μg/disk,60 ± 20%
same,Inhibition of Neovascularization Grade/Mean ± SD,[1]; 500 μg/disk,2.4 ± 0.84
same,Inhibition of Neovascularization Grade/Range,[1]; 1000 μg/disk,2-4
same,Mean % Inhibition of Neovascularization,[1]; 1000 μg/disk,83 ± 20%
same,Inhibition of Neovascularization Grade/Mean ± SD,[1]; 1000 μg/disk,3.3 ± 0.82
same,No. Vessels (Mean ± S.D.),Lewis lung carcinoma; 125 μg/kg/dose im daily for 5 days,6 ± 3
same,No. Vessels (Mean ± S.D.),Lewis lung carcinoma; 250 μg/kg/dose im daily for 5 days,7 ± 2
same,No. Vessels (Mean ± S.D.),Lewis lung carcinoma; 500 μg/kg/dose im daily for 5 days,9 ± 4
same,No. Vessels (Mean ± S.D.),Lewis lung carcinoma; 1000 μg/kg/dose im daily for 5 days,12 ± 5
same,No. Vessels (Mean ± S.D.),Lewis lung carcinoma; 2000 μg/kg/dose im daily for 5 days,17 ± 7
same,Mean Tumor Weight Left,"Sarcoma 180 tumors; PDR-1 (ip), 10 μg/kg",3.0
same,Percent of Control Tumor Weight Left,"Sarcoma 180 tumors; PDR-1 (ip), 10 μg/kg",120%
same,Mean Tumor Weight Right,"Sarcoma 180 tumors; PDR-1 (ip), 10 μg/kg",2.9
same,Percent of Control Tumor Weight Right,"Sarcoma 180 tumors; PDR-1 (ip), 10 μg/kg",126%
same,Mean Tumor Weight Left,"Sarcoma 180 tumors; PDR-1 (ip), 75 μg/kg",3.0
same,Percent of Control Tumor Weight Left,"Sarcoma 180 tumors; PDR-1 (ip), 75 μg/kg",120%
same,Mean Tumor Weight Right,"Sarcoma 180 tumors; PDR-1 (ip), 75 μg/kg",3.0
same,Percent of Control Tumor Weight Right,"Sarcoma 180 tumors; PDR-1 (ip), 75 μg/kg",130%
same,Mean Tumor Weight Left,"Sarcoma 180 tumors; PDR-1 (ip), 250 μg/kg",2.3
same,Percent of Control Tumor Weight Left,"Sarcoma 180 tumors; PDR-1 (ip), 250 μg/kg",92%
same,Mean Tumor Weight Right,"Sarcoma 180 tumors; PDR-1 (ip), 250 μg/kg",1.9
same,Percent of Control Tumor Weight Right,"Sarcoma 180 tumors; PDR-1 (ip), 250 μg/kg",83%
same,Mean Tumor Weight Left,"Sarcoma 180 tumors; PDR-1 (ip), 1000 μg/kg",1.3
same,Percent of Control Tumor Weight Left,"Sarcoma 180 tumors; PDR-1 (ip), 1000 μg/kg",52%
same,Mean Tumor Weight Right,"Sarcoma 180 tumors; PDR-1 (ip), 1000 μg/kg",1.0
same,Percent of Control Tumor Weight Right,"Sarcoma 180 tumors; PDR-1 (ip), 1000 μg/kg",43%
same,Leg Weight Left,Sarcoma 180 tumors; [2],4.2 ± 0.9 g
same,Leg Weight Right,Sarcoma 180 tumors; [2],4.1 ± 0.7 g
same,Leg Weight Left,Sarcoma 180 tumors; [3],4.2 ± 0.8 g
same,Leg Weight Right,Sarcoma 180 tumors; [3],4.2 ± 0.8 g
same,Leg Weight Left,Sarcoma 180 tumors; [4],3.5 ± 1.0 g
same,Leg Weight Right,Sarcoma 180 tumors; [4],3.1 ± 0.6 g
same,Leg Weight Left,Sarcoma 180 tumors; [5],2.5 ± 0.7 g
same,Leg Weight Right,Sarcoma 180 tumors; [5],2.2 ± 0.5 g
same,Mean Tumor Weight Left,Sarcoma 180 tumors; [6],2.4
same,Percent of Control Tumor Weight Left,Sarcoma 180 tumors; [6],96%
same,Mean Tumor Weight Right,Sarcoma 180 tumors; [6],2.6
same,Percent of Control Tumor Weight Right,Sarcoma 180 tumors; [6],113%
same,Mean Tumor Weight Left,Sarcoma 180 tumors; [7],2.4
same,Percent of Control Tumor Weight Left,Sarcoma 180 tumors; [7],96%
same,Mean Tumor Weight Right,Sarcoma 180 tumors; [7],3.3
same,Percent of Control Tumor Weight Right,Sarcoma 180 tumors; [7],143%
same,Mean Tumor Weight Left,Sarcoma 180 tumors; [8],1.8
same,Percent of Control Tumor Weight Left,Sarcoma 180 tumors; [8],72%
same,Mean Tumor Weight Right,Sarcoma 180 tumors; [8],1.1
same,Percent of Control Tumor Weight Right,Sarcoma 180 tumors; [8],48%
same,Mean Tumor Weight Left,Sarcoma 180 tumors; [9],1.2
same,Percent of Control Tumor Weight Left,Sarcoma 180 tumors; [9],48%
same,Mean Tumor Weight Right,Sarcoma 180 tumors; [9],1.3
same,Percent of Control Tumor Weight Right,Sarcoma 180 tumors; [9],57%
same,Leg Weight Left,Sarcoma 180 tumors; [10],3.6 ± 0.7 g
same,Leg Weight Right,Sarcoma 180 tumors; [10],3.8 ± 0.7 g
same,Leg Weight Left,Sarcoma 180 tumors; [11],3.6 ± 0.7 g
same,Leg Weight Right,Sarcoma 180 tumors; [11],3.5 ± 0.3 g
same,Leg Weight Left,Sarcoma 180 tumors; [12],3.0 ± 0.1 g
same,Leg Weight Right,Sarcoma 180 tumors; [12],2.3 ± 0.5 g
same,Leg Weight Left,Sarcoma 180 tumors; [13],2.4 ± 0.5 g
same,Leg Weight Right,Sarcoma 180 tumors; [13],2.5 ± 0.5 g
heparin,Inhibition of Neovascularization Grade/Range,[1]; 10 μg/disk,1-4
same,Mean % Inhibition of Neovascularization,[1]; 10 μg/disk,81 ± 18%
same,Inhibition of Neovascularization Grade/Mean ± SD,[1]; 10 μg/disk,3.26 ± 0.73
"O=P1(N(CCCl)CCCl)NCCCO1 (stereo not shown) [Cytoxan, reference compound]",No. Vessels (Mean ± S.D.),"Lewis lung carcinoma; Dose 200 (column head μg/kg/dose), administered only on day 2",9 ± 5
Thr-Ala-Glu-Glu-Lys (TAEEK) [pentapeptide specificity control],Inhibition of Neovascularization Grade/Range,[1]; 0.001 μg/disk,0-0
same,Mean % Inhibition of Neovascularization,[1]; 0.001 μg/disk,0%
same,Inhibition of Neovascularization Grade/Mean ± SD,[1]; 0.001 μg/disk,0 ± 0
same,Inhibition of Neovascularization Grade/Range,[1]; 0.01 μg/disk,0-0
same,Mean % Inhibition of Neovascularization,[1]; 0.01 μg/disk,0%
same,Inhibition of Neovascularization Grade/Mean ± SD,[1]; 0.01 μg/disk,0 ± 0
same,Inhibition of Neovascularization Grade/Range,[1]; 0.1 μg/disk,0-0
same,Mean % Inhibition of Neovascularization,[1]; 0.1 μg/disk,0%
same,Inhibition of Neovascularization Grade/Mean ± SD,[1]; 0.1 μg/disk,0 ± 0
same,Inhibition of Neovascularization Grade/Range,[1]; 1 μg/disk,0-1
same,Mean % Inhibition of Neovascularization,[1]; 1 μg/disk,8 ± 10%
same,Inhibition of Neovascularization Grade/Mean ± SD,[1]; 1 μg/disk,0.33 ± 0.49
same,Inhibition of Neovascularization Grade/Range,[1]; 10 μg/disk,0-1
same,Mean % Inhibition of Neovascularization,[1]; 10 μg/disk,5 ± 10%
same,Inhibition of Neovascularization Grade/Mean ± SD,[1]; 10 μg/disk,0.18 ± 0.40
same,Inhibition of Neovascularization Grade/Range,[1]; 100 μg/disk,0-2
same,Mean % Inhibition of Neovascularization,[1]; 100 μg/disk,18 ± 23%
same,Inhibition of Neovascularization Grade/Mean ± SD,[1]; 100 μg/disk,0.67 ± 0.87
same,Inhibition of Neovascularization Grade/Range,[1]; 500 μg/disk,0-1
same,Mean % Inhibition of Neovascularization,[1]; 500 μg/disk,9 ± 13%
same,Inhibition of Neovascularization Grade/Mean ± SD,[1]; 500 μg/disk,0.3 ± 0.48
same,Inhibition of Neovascularization Grade/Range,[1]; 1000 μg/disk,0-2
same,Mean % Inhibition of Neovascularization,[1]; 1000 μg/disk,18 ± 20%
same,Inhibition of Neovascularization Grade/Mean ± SD,[1]; 1000 μg/disk,0.7 ± 0.82
